Data on 16 compounds can be found in patent US20240376056A1, “PHENYL ACETAMIDE BASED IL-17A MODULATORS AND USES THEREOF” (DiCE Alpha, Inc., priority 2021, published 2024).

The target of this experiment is T1, IL-17A/A (Homo sapiens, UniProt Q16552).
T1 construct: purchased Genscript Z03228
T1 sequence (Q16552 24-155): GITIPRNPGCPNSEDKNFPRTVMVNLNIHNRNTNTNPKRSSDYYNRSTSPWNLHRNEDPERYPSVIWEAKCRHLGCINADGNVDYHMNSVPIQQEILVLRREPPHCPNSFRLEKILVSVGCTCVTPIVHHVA
As to the kind of experiment: HEK-Blue IL-17A/A inhibition assay (SEAP reporter). The settings on record: HEK-Blue cells (HEK 293 expressing IL-17RA, IL-17RC, Act1); IL-17A/A stimulation; 20 hours; SEAP read at A630; 4-parameter fit. The format is cell-based. An outline of the steps: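 IC50 from a 4-parameter fit of SEAP signal (Quanti-Blue, A630) after 20 h co-incubation of compound and IL-17A/A. Reporter line: HEK 293 expressing IL-17RA, IL-17RC and Act1 with NFκB-SEAP; compound top final 10, 1 or 0.3 uM, DMSO 0.1% final.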

Regarding `CC(C)n1nccc1C(=O)N[C@H](C(=O)Nc1ccc([C@H](C)C(=O)N2C[C@@H](F)C[C@@H]2C(F)(F)F)cc1F)C(C1CC1)C1CC1` [Compound 59, N-((S)-1,1-dicyclopropyl-3-((2-fluoro-4-((S)-1-((2R^4S)-4-fluoro-2-(trifluoromethyl)pyrrolidin-1-yl)-1-oxopropan-2-yl)phenyl)amino)-3-oxopropan-2-yl)-1-isopropyl-1H-pyrazole-5-carboxamide], the IC50 is above 1000 nM. With `CC(C)n1nccc1C(=O)N[C@H](C(=O)Nc1ccc([C@H](C)C(=O)N(C)CC(F)(F)F)cc1F)C(C1CC1)C1CC1` [Compound 78, N-((S)-1,1-dicyclopropyl-3-((2-fluoro-4-((S)-1-(methyl(2,2,2-trifluoroethyl)amino)-1-oxopropan-2-yl)phenyl)amino)-3-oxopropan-2-yl)-1-isopropyl-1H-pyrazole-5-carboxamide], the IC50 is below 100 nM. The value for `CC(C(=O)NCC(F)(F)F)c1cc(F)c(NC(=O)[C@@H](NC(=O)c2ccnn2C(C)C)C(C2CC2)C2CC2)cc1N(C)C` (stereo partly shown) [Compound 234] was above 1000 nM; that for `CCC(C1CCC1)[C@H](NC(=O)c1ccnn1CC)C(=O)Nc1ccc([C@H](C)C(=O)NCC(F)(F)F)cc1F` (single isomer, unassigned) [Compound 87] was 100 to 1000 nM; that for `CC(C)n1nccc1C(=O)N[C@H](C(=O)Nc1ccc([C@H](C)C(=O)N2C[C@H](F)[C@@H](F)C2)cc1F)C(C1CC1)C1CC1` [Compound 38, N-((S)-1,1-dicyclopropyl-3-((4-((S)-1-((3S,4S)-3,4-difluoropyrrolidin-1-yl)-1-oxopropan-2-yl)-2-fluorophenyl)amino)-3-oxopropan-2-yl)-1-isopropyl-1H-pyrazole-5-carboxamide] was 100 to 1000 nM. Consider `CC(C)n1nccc1C(=O)N[C@H](C(=O)Nc1ccc([C@H](C)C(=O)N2CCN(C(=O)OC(C)(C)C)CC2C(F)(F)F)cc1F)C(C1CC1)C1CC1` (stereo partly drawn) [Compound 39, tert-butyl 4-((S)-2-(4-((S)-3,3-dicyclopropyl-2-(1-isopropyl-1H-pyrazole-5-carboxamido)propanamido)-3-fluorophenyl)propanoyl)-3-(trifluoromethyl)piperazine-1-carboxylate], for which the IC50 is above 1000 nM.

On to `CNc1cc(NC(=O)[C@@H](NC(=O)c2ccnn2C(C)C)C(C2CC2)C2CC2)c(F)cc1C(C)C(=O)NCC(F)(F)F` (single isomer, unassigned) [Compound 164], for which the IC50 is below 100 nM. For `CC(C(=O)NCC(F)(F)F)c1cc(F)c(NC(=O)[C@@H](NC(=O)c2ccnn2C(C)C)C(C2CC2)C2CC2)cc1C(F)(F)F` (stereo partly shown) [Compound 169], the 50% inhibitory concentration (IC50) is below 100 nM.

As to `CC(C(=O)N1CC(C#N)CCC1C(F)(F)F)c1ccc(NC(=O)[C@@H](NC(=O)c2ccnn2C(C)C)C(C2CC2)C2CC2)c(F)c1` (stereo partly shown) [Compound 204], the 50% inhibitory concentration (IC50) is 100 to 1000 nM. The value for `CCn1ncc(F)c1C(=O)N[C@H](C(=O)Nc1ccc([C@H](C)C(=O)NCC(F)(F)F)cc1F)C(C1CC1)C1CC1` [Compound 83, N-((S)-1,1-dicyclopropyl-3-((2-fluoro-4-((S)-1-oxo-1-((2,2,2-trifluoroethyl)amino)propan-2-yl)phenyl)amino)-3-oxopropan-2-yl)-1-ethyl-4-fluoro-1H-pyrazole-5-carboxamide] was above 1000 nM; that for `CC(C)C(C(=O)NCC(F)(F)F)c1ccc(NC(=O)[C@@H](NC(=O)c2ccnn2C(C)C)C(C2CC2)C2CC2)c(F)c1` (single isomer, unassigned) [Compound 129] was above 1000 nM; that for `CC(C(=O)NCC(F)(F)F)c1cc(F)c(NC(=O)[C@@H](NC(=O)c2ccnn2C(C)C)C(C2CC2)C2CC2)cc1Nc1ccccn1` (stereo partly shown) [Compound 254] was above 1000 nM. The value for `CCN(C)C(=O)C(C)c1cc(F)c(NC(=O)[C@@H](NC(=O)c2ccnn2CC)C(C2CC2)C2CC2)cc1C` (stereo partly shown) [Compound 243] was 100 to 1000 nM. Regarding `CCc1cc(NC(=O)[C@@H](NC(=O)c2ccnn2C(C)C)C(C2CC2)C2CC2)c(F)cc1[C@H](C)C(=O)NCC(F)(F)F` [Compound 111, N-((S)-1,1-dicyclopropyl-3-((5-ethyl-2-fluoro-4-((S)-1-oxo-1-((2,2,2-trifluoroethyl)amino)propan-2-yl)phenyl)amino)-3-oxopropan-2-yl)-1-isopropyl-1H-pyrazole-5-carboxamide], the IC50 was below 100 nM. With `CNc1cc(NC(=O)[C@@H](NC(=O)c2ccnn2C(C)C)C(C2CC2)C2CC2)c(F)cc1C(C)C(=O)NCC(F)(F)F` (stereo partly shown) [Compound 196] the figure was above 1000 nM. Take `C=Cc1cc(NC(=O)[C@@H](NC(=O)c2ccnn2C(C)C)C(C2CC2)C2CC2)c(F)cc1C(C)C(=O)NCC(F)(F)F` (mixture of isomers) [Compound 110, N-((2S)-1,1-dicyclopropyl-3-((2-fluoro-4-(1-oxo-1-((2,2,2-trifluoroethyl)amino)propan-2-yl)-5-vinylphenyl)amino)-3-oxopropan-2-yl)-1-isopropyl-1H-pyrazole-5-carboxamide]: the IC50 is below 100 nM.
